# Patent US20250073250A1, “Improved synthesis of lysine acetylsalicylate - Glycine particles” (AspiAir GmbH, priority 2022, published 2025)
# Where two headings read alike, the source gives them in different places.
# How the values were obtained:
# Assay type in all cases: physicochemical
# [1] = Glass adhesion in 8 mL glass vial (gravimetric)
# Procedure: After opening the vial and emptying out any non-adhered powder by simple gravitational spill, the vial with the adhered particles inside is weighed again, to thereby gravimetrically determine the weight of the adhered particles. Low glass adhesion facilitates handling of the vials (e.g., better visibility into the vial), and ensures that the complete intended dose is dissolved upon adding water to the vial (rather than, for instance, some material sticking to the upper end of the vial, near the stopper, where the water, that is added into the vial via injection through a needle, may not reach). […] On at least five consecutive days, the vial was manually moved, or rotated, once daily around all its axes to properly disperse the LASAG particles and allow them to coat the inner glass surface. After seven days, the vials were emptied by simply turning them upside down and allowing all non-adhering powder to spill out, or fall out, under gravity, followed by firmly tapping the vial five times onto a solid surface. No noteworthy adhesion to the stopper was observed. The weight of the remainder, i.e., the weight of the LASAG powder still sticking to the glass wall inside the vial after emptying, was determined gravimetrically. The same test was performed with a commercially available Aspirin® i.v. vial.
# [2] = Specific surface area by BET gas adsorption
# From the text: Without wishing to be bound by theory, it seems possible that not only the smaller median particle size of the LASAG according to the present invention is responsible for its faster dissolution but also its higher specific surface area.
# [3] = Dissolution on horizontal shaker; conditions: 1000 mg in 5 mL water, 25 mL test tube, horizontal shaker 1055 rpm, 5 s intervals
# Procedure: An amount of 5 mL water for injection purposes was added, and the vial shaken in intervals of 5 seconds at 1055 rpm until complete dissolution (no residual solids visible to the human eye). The same test was performed with a commercially available Aspirin® i.v. vial. Each test was repeated at least 3 times per type of LASAG.
# [4] = Stability in aqueous solution (salicylic acid content by HPLC)
# Procedure: Due to its instability in water, LASAG is commonly used as a dry powder, and specifically as a dry powder for reconstitution; in other words, an aqueous solution thereof is not necessarily meant to be stored for extended periods of time but instead is prepared freshly prior to each use. Stability in aqueous solution is nonetheless an important feature for users, for instance, in order to know how long a prepared solution can still be used; a content of ≤1.5 wt.-% of the LASAG-degradant salicylic acid (SA) in a solution is typically considered acceptable. […] In between sample time points, the vials were kept closed.
# The following time points were measured:
# For the HPLC-analysis, an Agilent Zorbax SB-C18 column was used (4.6×250 mm, 5 μm) at 22° C. with isocratic elution over 40 minutes at an eluent flow rate of 1 mL/min. The eluent was an 80 mM ammonium acetate/acetonitrile solution (60:40) prepared by dissolving 4 g ammonium acetate in 600 mL HPLC-grade water, adjusting the pH to 2.0 using trifluoroacetic acid, then adding 400 mL acetonitrile and homogenising the mixture. The injected sample volume was 10 μL. A UV-detector was used at 237 nm to analyse the samples.
# [5] = Storage stability in dry state in aluminium-lined polyethylene bags
# Procedure: At 5±3° C. […] After continuation of the cold storage stability study for a further 12 months, this stability finding is reconfirmed, with the extrapolated value being increased to from 70.9±3.5 months to 200±5 months.
# [6] = Particle size distribution (PSD) by laser diffraction; conditions: for Dv10 / Dv50 / Dv90: volume-based
# Procedure: Unless mentioned otherwise, the particle size values provided herein (either measured or calculated/derived from measured values) refer to particle diameters and were determined using a laser diffraction device, and its related evaluation software (here, for instance, a Mastersizer® device from Malvern Instruments Ltd.); all laser diffraction measurements complied with ISO-13320 standards. Where referring to the particle size measurements, all percentages provided herein (such as ‘at least 90% of the particles have a particle size of . . . ’) are to be understood as volume-percentages. […] Where available, three or more batches of the substances were tested, and mean values of their PSD-data obtained.
# [7] = Manual dissolution of 1000 mg LASAG in 8 mL glass vial with 5 mL water for injection; conditions: 1000 mg in 5 mL water for injection, 8 mL vial
# From the text: As mentioned above, by controlling the particle size of the LASAG, it is possible to control parameters such as the dissolution speed (also referred to as dissolution rate). […] Special precautionary measures” that the reconstituted solution should preferably be filtered with a 5 μm filter before its application, as such indicating potential issues with (quick) dissolution. Especially, when considering that LASAG is inter alia employed in the treatment of myocardial infarction, i.e., an acute health crisis where time is of critical importance, a faster, more readily occurring dissolution of the LASAG used, can represent a clinically relevant advantage.
# An amount of 5 mL water for injection purposes was injected through the sealing stopper over the course of about 25-30 seconds, the needle then removed, and the vial shaken, or swirled, manually until complete dissolution (no residual solids visible to the human eye). The same test was performed with a commercially available Aspirin® i.v. vial. Each test was repeated at least 3 times per type of LASAG. This test and the resulting dissolution behaviour are considered similar to what is likely to be observed by, for instance, paramedics in an ambulance or medical staff in hospitals upon dissolving the dry LASAG particles in pre-filled vials by adding water for injection purposes and shaking manually. […]
# [8] = listed as LASAG 2 (batch in clinical study)
smiles,measurement,setting,value
"CC(=O)Oc1ccccc1C(=O)O.NCC(=O)O.NCCCCC(N)C(=O)O (racemic) [LASAG 2, lysine acetylsalicylate⋅glycine]",weight remaining in the vial (adhering to glass),"[1]; 1000 mg in 8 mL vial, after seven days, emptied and tapped",5.12 ± 0.35 mg
same,glass adhesion per inner glass surface,[1]; inner glass surface approx. 29 cm^2,about 0.177 mg/cm^2
same,specific surface area,[2],2.4±0.1 m^2/g
same,time until complete dissolution,[3],18.3 ± 2.9 s
same,time at which solution exceeds 1.5 wt.-% salicylic acid content,"[4]; 1.0 g in 5.0 mL water, room temperature (20±5° C.)",about 1 h
same,changes in colour or clarity of solution,[4]; over time range and storage conditions tested,None
same,Time until reaching salicylic acid threshold of 1.5%,"[5]; 5±3° C., extrapolated after continuation of study for a further 12 months",200±5 months
same,Time until reaching salicylic acid threshold of 1.5%,"[5]; 5 ± 3° C., n = 3, extrapolated, listed as LASAG according to present invention",70.9 ± 3.5 months
same,Time until reaching salicylic acid threshold of 1.5%,"[5]; 25 ± 2° C. 60 ± 5% r.h., n = 3",10.3 ± 2.0 months
same,Time until reaching salicylic acid threshold of 1.5%,"[5]; 30 ± 2° C. 65 ± 5% r.h., n = 3",3.5 ± 1.2 months
same,Time until reaching salicylic acid threshold of 1.5%,"[5]; 40 ± 2° C. 75 ± 5% r.h., n = 3",0.2 ± 0.0 months
same,1st max. of particle size distribution,[6],20.4 μm
same,1st max. of particle size distribution,[6]; [8],18.7 μm
same,Dv10,[6],4.2 μm
same,Dv50,[6],18.4 μm
same,Dv90,[6],53.3 μm
same,Dv10,[6]; [8],3.8 μm
same,Dv50,[6]; [8],16.3 μm
same,Dv90,[6]; [8],40.4 μm
same,Dv90,[6]; listed as LASAG of the present invention,about 50 μm
same,shaking/swirling motions until complete dissolution,[7]; manual,3-5
same,time from removing the needle until complete dissolution,[7]; manual shaking/swirling,15 to 30 s
